Results published in article PMC6010047, “Design, synthesis and biological evaluation of novel hydroxy-phenyl-1H-benzimidazoles as radical scavengers and UV-protective agents” (Journal of Enzyme Inhibition and Medicinal Chemistry, 2017).
Where two headings read alike, the source gives them in different places.

How the values were obtained:
[1] = UV spectra: λmax and molar extinction coefficient; format: physicochemical
Method: Sun protection factor (SPF) is related to the UV absorption of the substances, so before including the molecules in cosmetic formulations we evaluated the wavelength of maximum absorption (λmax) and the molar extinction coefficient (ɛ) of each molecule in aqueous solution at pH 7. The UV spectra were recorded between 270 and 420 nm (20 nm higher and lower then UVA and UVB range) to verify the spectrum profile of the molecules within UVA and UVB region. UV spectrum of PBSA is an UVB filter and presents a λmax of 302 nm; after this peak, the absorbance fades going to higher wavelength until almost zero around 325 nm, and then, it provides no absorption in the UVA region. Molecules spectra overlapped for category according to the substituent in position 5 of the benzimidazole ring are shown in Figures 1, 2 and 3; PBSA spectrum is presented in all figures for comparison.
From the spectra appears that the lambda maxima (Table 2) of the new molecules shifted toward higher wavelength and in general the range of absorption curve was wider than PBSA. Within a group of molecules, the batochromic shift was more marked for the molecules that have a hydroxyl moiety in position 2 of the phenyl ring (4, 5, 6, 9, 10, 11, 13 and […]); the effect of ortho substituted is known to produce this shift toward higher wavelength. Increasing the number of auxochrome groups on phenyl ring an increment in the absorption range occurred, compounds with three hydroxyl on the phenyl ring (6, 11, 15) had the broadest spectrum and their lambda maxima shifted at the highest wavelength compared to the other compounds. The absorption spectrum of molecules with the same number and position of hydroxyl seemed only slightly influenced by the substituent in position 5 of the benzimidazole ring. After having established the lambda maxima for every compound, solutions at different concentrations were prepared to calculate the molar extinction coefficient by means of linear regression and applying Lambert–Beer equation (Table 2).

[2] = 1,1-Diphenyl-2-picryl-hydrazyl radical (DPPH) assay; format: biochemical; settings: Trolox equivalents; mean ± SE of three experiments
Method: To 1.5 mL DPPH methanolic solution (0.5 mM) was added 0.750 mL of sample solution proper diluted. Samples absorbance measurements were evaluated with a UV-VIS spectrophotometer (Thermo Spectronic Helios γ, Cambridge, UK) at fixed wavelength of 517 nm. Blank sample was prepared adding methanol to DPPH solution and Trolox was used as standard reference to achieve a calibration curve. The radical-scavenging activity is expressed as inhibition ratio of initial concentration of DPPH radical and is calculated according to the formula: Inhibition percentage (Ip) = [(AB-As)/AB]·100; where AB and As are, respectively, the absorbance values of blank reaction and of the tested sample[25].

[3] = Cytotoxicity, MTT test, 72 h; settings: human, NCTC-2544 keratinocytes (immortalized, nontumorigenic)
Method: (§1) An immortalized, nontumorigenic cell line of human keratinocytes (NCTC-2544) was grown in a DMEM medium (Sigma-Aldrich Milan, Italy), supplemented with 115 units/mL of penicillin G, 115 μg/mL streptomycin, and 10% fetal calf serum (Invitrogen, Milan, Italy). Individual wells of a 96-well tissue culture microtiter plates (Falcon, Becton–Dickinson) were inoculated with 100 μL of complete medium containing 5 × 10^3 NCTC-2544. The plates were incubated at 37 °C in a humidified (5% CO2) incubator for 18 h prior to the experiments.
After medium removal, 100 μL of the drug solution, dissolved in DMSO and diluted in DMEM medium, was added to each well, incubated at 37 °C for 72 h. Final DMSO concentration never exceeded 0.5%. Cell viability was assayed by the MTT (3–(4,5-dimethylthiazol-2-yl)-2,5 diphenyl tetrazolium bromide) test as previously described by Mosmann[27].
The tests were conducted using a specific cell line of human keratinocytes (NCTC-2544). To assess cell viability, in the presence of the study compounds, before and after the irradiation, the MTT assay was performed[27]. The cytotoxicity was checked after 72 h from the incubation of the keratinocytes with compounds; moreover, the same experiments were performed in the presence of the parent PBSA.

[4] = system: NCTC-2544 cells; assay: Phototoxicity / cellular photoprotection, UVA or UVB irradiation, MTT test; settings: Homo sapiens, NCTC-2544, light or radiation study, 48 h
Method: as §1
Two HPW 125 Philips lamps, mainly emitting at 365 nm, were used for UVA irradiation experiments. The spectral irradiance of the source was 4.0 mWcm^−^2 as measured at the sample level by a Cole-Parmer Instrument Company radiometer (Niles, IL) equipped with a 365-CX sensor. One or two PL-S 9 W/12 Philips lamps (280–370 nm; peak at 315 nm) were used for UVB irradiation experiments. To restrict the incident radiation to the range 305–370 nm, a glass filter (Schott SWG-305) was used. Total energy was detected by the same equipped with a sensor (model CX-312).
After medium removal, 100 μL of the drug solution, dissolved in DMSO and diluted with Hank’s Balanced Salt Solution (HBSS pH =7.2), was added to each well, incubated at 37 °C for 30 min, and then irradiated (20 J/cm^2 for UVA and 0.5 and 1 J/cm^2 for UVB). After irradiation, the solution was replaced with the medium and the plates were further incubated for 48 h. Cell viability was assayed by the MTT [(3–(4,5-dimethylthiazol-2-yl)-2,5 diphenyl tetrazolium bromide)] test as previously described by Mosmann[27].
Molecules were verified for their photocytotoxicity in the same cell line; the cells were treated with 50 μM solutions of compound and after 30 min were irradiated with 20 J/cm^2 UVA or with UVB at two energy amounts: 0.5 J/cm^2 and 1 J/cm^2 UVB. […] After irradiation, the solution was replaced with growth medium and the cells were further incubated for 48 h, and then, cell viability was assessed by MTT assay. […] The phototoxicity of tested molecules was compared with the ratio of cell survival of irradiated keratinocytes without substance (IC = irradiated control).

[5] = Ferric reducing antioxidant of potency (FRAP) assay; format: biochemical; settings: Trolox equivalents; mean ± SE of three experiments
Method: The ferric reducing ability of each standard solution was measured according to a modified protocol described by Guihua et al.[26]. The reagent for analysis was freshly prepared by mixing the following solutions in the reported ratio 10/1/1 (v:v:v) (i) 0.1 M acetate buffer pH 3.6, (ii) TPTZ (2,4,6-Tri(2-pyridyl)-s-triazine) 10 mmol/L in 40 mmol/HCl, (iii) ferric chloride 20 mmol/L. To a 1.9 mL of reagent were added 0.1 mL of sample proper diluted or solvent when blank was performed. Readings at fixed wavelength of the absorption maximum (593 nm) were done after 30 min, using a UV-VIS spectrophotometer; it was evaluated the absorbance increase of sample solution against the absorbance of blank reaction as parameter to calculate the antioxidant activity. The antioxidant activity is given as Trolox activity since this standard was used to perform the calibration curves.

- λ max ([1]; aqueous solution at pH 7): 306 nm
- ɛ (molar extinction coefficient) ([1]; aqueous solution at pH 7, at λ max, linear regression Lambert–Beer): 24 000
Compound: Oc1ccc(-c2nc3ccccc3[nH]2)cc1 [Compound 7, 2-(4-Hydroxy-phenyl)-1H-benzimidazole]
- DPPH [2]: 1.67 ± 0.08 μmolTrolox/mmol
- IC50 at 72 h [3]: 26.1 ± 2.4 µM
- viability at 20 µM ([4]; read-out: % Cell survival UVA 20 J/cm^2): 72.8 ± 2.9%
- viability at 20 µM ([4]; read-out: % Cell survival UVB 0.5 J/cm^2): 74.2 ± 1.3%
- viability at 20 µM ([4]; read-out: % Cell survival UVB 1 J/cm^2): 44 ± 4.1%
- FRAP [5]: 21.94 ± 0.12 μmolTrolox/mmol
